{"source": "patent US20210322415A1", "about": "(priority 2016, published 2021)", "key": {"[1]": {"biological_target": "c-kit (Homo sapiens, UniProt P10721)", "sequence (P10721 26-976)": "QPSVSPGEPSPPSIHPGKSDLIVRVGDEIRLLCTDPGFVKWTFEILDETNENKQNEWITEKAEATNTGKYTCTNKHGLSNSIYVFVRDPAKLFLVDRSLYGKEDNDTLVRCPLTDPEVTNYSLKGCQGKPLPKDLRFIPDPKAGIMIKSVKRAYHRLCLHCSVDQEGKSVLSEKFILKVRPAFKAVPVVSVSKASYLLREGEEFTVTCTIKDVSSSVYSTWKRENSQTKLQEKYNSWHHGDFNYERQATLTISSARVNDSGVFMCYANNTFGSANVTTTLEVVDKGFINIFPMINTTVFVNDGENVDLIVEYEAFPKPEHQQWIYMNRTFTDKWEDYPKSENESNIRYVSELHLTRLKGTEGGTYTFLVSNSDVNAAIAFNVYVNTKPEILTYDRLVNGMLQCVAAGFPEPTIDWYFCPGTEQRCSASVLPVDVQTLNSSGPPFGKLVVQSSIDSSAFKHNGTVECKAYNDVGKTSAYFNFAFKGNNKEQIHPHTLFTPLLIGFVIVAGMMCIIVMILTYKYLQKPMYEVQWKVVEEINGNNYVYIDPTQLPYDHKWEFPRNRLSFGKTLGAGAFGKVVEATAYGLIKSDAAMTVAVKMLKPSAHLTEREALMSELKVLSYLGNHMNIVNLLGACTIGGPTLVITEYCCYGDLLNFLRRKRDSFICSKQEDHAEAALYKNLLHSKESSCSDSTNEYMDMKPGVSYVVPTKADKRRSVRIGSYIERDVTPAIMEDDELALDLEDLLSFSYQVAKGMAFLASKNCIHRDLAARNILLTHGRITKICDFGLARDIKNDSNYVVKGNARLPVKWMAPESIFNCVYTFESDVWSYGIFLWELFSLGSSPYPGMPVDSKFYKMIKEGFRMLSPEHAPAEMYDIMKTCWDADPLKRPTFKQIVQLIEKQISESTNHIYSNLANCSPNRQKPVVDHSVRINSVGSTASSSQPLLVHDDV", "test": "Target cover in pre-clinical models: modelled mean free plasma concentration vs cellular IC50", "type": "in vivo", "conditions": "doses up to 2.4 mg/kg", "method": "4.8 mg/kg (FIGS. 1M-1P) following dosing zs regimens of once daily continuous (QDCont), once daily 5 days on 2 days off (QD5on2off), or once daily 4 days (QD4on3off). […] The reduction in PK is shown following the last dose of drug (at either 4 or 5 days dosing), and overlaid on each plot (horizontal lines) are the cellular IC50 values generated in vitro for inhibition of pVEGFR-1,-2, pKit, pPDGFRα and pPDGFRβ, as indicated. For the plots exemplifying VEGFR and Kit cover, R-P stands for receptor phosphorylation in a cell based assay; C-P stands for cell proliferation; for VEGFR plots, T-G stands for tubule growth in an endothelial-fibroblast co-culture assay. […] For the graphs depicting PDGFRα and β cover, inhibition of PDGFRα and PDGFRβ phosphorylation and PDGFBB or PDGFAA driven proliferation are shown together with the relevant cell lines."}, "[2]": {"tested_on": "tumors", "conditions": "reported in literature; cited from earlier work"}, "[3]": {"tested_on": "OV2022 tumour (ovarian cancer) xenografts", "test": "OV2022 patient derived tumour xenograft efficacy study", "type": "in vivo", "conditions": "3 mg/kg, 5 days on 2 days off vs daily, alone or with 100 mg/kg olaparib"}, "[4]": {"tested_on": "SW620, Calu6 and A498 tumor xenografts", "test": "Tumor xenograft efficacy studies with intermittent dosing", "type": "in vivo, nude or scid mice", "conditions": "for anti-tumor effects: oral once daily", "from_the_text": "Tumors were selected and randomized into groups when tumor volume reached approximately 0.2 cm^3. […] Groups of 10 animals were used, however in the final cycle cohorts of 5 animals were removed in between dosing group to support assessment of pharmacodynamic biomarkers in the tumor."}}, "data": [{"smiles": "COc1cc2c(Oc3ccc4[nH]c(C)cc4c3F)ncnc2cc1OCCCN1CCCC1.O=C(O)/C=C\\C(=O)O", "note": "[cediranib, 4-[(4-fluoro-2-methyl-1H-indol-5-yl)oxy]-6-methoxy-7-[3-(pyrrolidin-1-yl)propoxy]quinazoline maleate]", "values": [{"measurement": "target cover versus c-kit", "setting": "[1]", "result": "achieving target cover"}, {"measurement": "tumor growth in a range of preclinical models", "setting": "[2]", "result": "inhibit the growth of tumors in a dose-dependent manner"}, {"measurement": "efficacy of intermittent schedule versus constant dose", "setting": "[3]", "result": "equivalent efficacy"}, {"measurement": "efficacy (mean tumor volume versus time)", "setting": "[4]; 1.5 mg/kg, 4/3 schedule, three 7-day cycles (FIG. 5)", "result": "in 2 out of the three models intermittent dosing of cediranib at 1.5 mg/kg on a 4/3 schedule maintains efficacy"}, {"measurement": "efficacy (mean tumor volume versus time)", "setting": "[4]; 1.5 mg/kg, 5/2 schedule, three 7-day cycles (FIG. 3)", "result": "maintains efficacy"}, {"measurement": "efficacy (mean tumor volume versus time)", "setting": "[4]; 3 mg/kg, 4/3 schedule, three 7-day cycles (FIG. 6)", "result": "maintains efficacy"}, {"measurement": "efficacy (mean tumor volume versus time)", "setting": "[4]; 3 mg/kg, 5/2 schedule, three 7-day cycles (FIG. 4)", "result": "maintains efficacy"}, {"measurement": "anti-tumor effects", "setting": "[4]; 4 days on 3 days off schedule", "result": "maintains anti-tumor effects albeit at not as effectively as the 5/2 schedule"}, {"measurement": "anti-tumor effects", "setting": "[4]; 5 days on 2 days off schedule, monotherapy", "result": "maintains anti-tumor effects"}, {"measurement": "anti-tumor activity, intermittent compared to daily schedule", "setting": "[4]; preclinical in vivo data, 5 days on/2 days off vs daily", "result": "no difference in anti-tumor activity"}]}]}
